Reference: US20240199555A1, “APPLICATIONS OF BIASED LIGANDS OF THE SEROTONIN 5-HT7 RECEPTOR FOR THE TREATMENT OF PAIN, MULTIPLE SCLEROSIS AND THE CONTROL OF THERMOREGULATION” (Centre National de la Recherche Scientifique, priority 2021, published 2024)

Tests used:
Sprague-Dawley male rats = experiment: Formalin induced inflammatory pain model; format: in vivo; conditions: single s.c., Serodolin 10 mg/kg, MOA51 1 mg/kg, morphine
Experimental: FIG. 18: Effect of a single administration of Serodolin (AIC01) or MOA51 in the formalin test in rats. Effect of a single subcutaneous administration of Serodolin (AIC01) or MOA51 in the formalin test in rats. In this test, Sprague-Dawley male rats received unilateral injection of a 2.5% formalin solution (50 μl) into the plantar aspect of the hindpaw on testing day (i.e. D0). Control group received Vehicle (20% DMSO/5% Tween 80/NaCl). Serodolin was subcutaneously (sc) administrated at 10 mg/kg and MOA51 at 1 mg/kg. Positive control animals were treated with morphine (3 mg/kg, sc). Paw licking time was measured. Results are expressed as mean±s.e.m. Percentage are expressed as decreased as compared to the vehicle-treated group and represented as figure (B). ***: p<0.001 as compared to the vehicle-treated group, Bonferroni's test after significant Two-way Repeated Measures ANOVA. NS: Non-significant.
Sprague-Dawley male rats (n=10 rats per group) received unilateral injection of a 2.5% formalin solution (50 μl) into the plantar aspect of the hindpaw on testing day (i.e. D0). Experience was separated into 4 groups of animals. Formalin animals+vehicle-treated group; […]—Formalin animals+Sponsor's Serodolin (10 mg/kg), s.c.—Formalin animals+Sponsor's MOA51 (1 mg/kg), s.c.—Formalin animals+internal validator-treated group (Morphine at 4 mg/Kg, s.c.). Single subcutaneous administration of the Vehicle and Sponsor's Compound 30 min (or other timing depending on Sponsor's design) before formalin injection on testing day (i.e. D0)/Subcutaneous administration of Morphine 30 min before formalin injection on testing day (i.e. D0). Hindpaw licking time recorded in consecutive 5 minutes periods from 0 to 5 minutes (early phase) and 17 to 27 minutes (late phase) after formalin injection.
We evaluated the effect of Serodolin as well as MOA51 in rats in the formalin test, an acute and tonic pain model based on the use of a chemical stimulus. Subcutaneous injection of formalin into the right hindpaw produces a biphasic painful response of increasing and decreasing intensity for about 30 minutes after the injection. […] Although not significant, Serodolin, MOA51 and morphine have an inhibitory effect (−40%, −35% and −57% respectively) during the early phase.

C57BL/6 mice = experiment: Spared Nerve Injury (SNI) neuropathic pain model, Von Frey; conditions: s.c.
Experimental: Pregabalin, vehicle or compounds solutions are subcutaneously administrated for 8 consecutive days. • (A) Mechanical response threshold after the first administration (D+10). […] Positive control animals were treated with Pregabalin (5 mg/kg, sc). Statistical differences are indicated compared to vehicle group (Two-way RM ANOVA followed by Bonferroni post-hoc test: ***p<0.001, ** p<0.01, * p<0.05). […] Positive control animals were treated with Pregabalin (5 mg/kg, sc). Statistical differences are indicated compared to vehicle group (Two-way RM ANOVA followed by Bonferroni post-hoc test: ***p<0.001, ** p<0.01, * p<0.05). […] (Two-way RM ANOVA followed by Bonferroni post-hoc test: ***p<0.001, ** p<0.01, * p<0.05)
MOA51 and Serodolin (AIC01) compounds were diluted in NDT solution (NaCl 0.9%—DMSO 20%—Tween80 5%). […] AIC01 was resuspended at 0.5 mg/mL and administrated at a ratio of 100 μl per 10 g (dose of 5 mg/kg).
Experiment starts with 8 weeks old male C57B16J mice (from Charles River). Study was performed on 40 mice (2 mice were excluded during the study due to health guidelines) divided in 4 randomized groups. • Group A: s.c. injection at 5 mg/kg of pregabalin. • Group B: s.c. injection at 0.5 mg/kg of MOA51. • Group C: s.c. injection at 5 mg/kg of Serodolin (AIC01). • Group D: s.c. injection of NDT solution (referred as Vehicle hereafter).
Compounds solutions, pregabalin and vehicle were subcutaneously administrated (100 μl/10 g) for 9 consecutive days, starting 10 days after surgery. Ligature and transection of the common peroneal and tibial distal branches of the sciatic nerve was made leaving the sural branch intact. 7 days post-surgery, a decrease of threshold response to Von Frey filaments of ipsilateral hind-paw was observed corresponding to neuropathic pain apparition (mechanical allodynia). Mechanical threshold response of mice were measured with calibrated Von Frey filaments using the up/down method. Experimenter was blind to mice treatment. Measures are performed as follow: one baseline measure before surgery, one measure at D+10, D+12, D+14, D+16 and D+18 before drug's administration, and 1 h, 2 h post-drug administration. A supplementary measure 4 h post-drug administration was performed at D+10 and D+18.
Two-way RM ANOVA (followed by Bonferroni post-hoc test) was used to analysed time course response at D+10 and D+18. Area under the curve was determined with the 1 h and 2 h post-drug administration measures to investigated tolerance of repeated administration of compounds

HEK-293 mock cells = experiment: Control in mock-transfected HEK-293 cells (cAMP, ERK phosphorylation); format: cell-based, human
Experimental: ERK phosphorylation was monitored by western blotting after treatment of cells with 10 μM of ligands at different times ranging from 2 to 60 minutes. […] The kinetics of ERK phosphorylation elicited by 5-CT, Serodolin and MOA-51 were very similar: activation was fast and transient, and reached a pick between 2 and 7 minutes after drug exposure. However, ERK phosphorylation-induced by Serodolin and MOA-51 was more protracted compared to 5-CT, the reference agonist.

mice = experiment: Acetic acid-induced writhing test; format: in vivo
Experimental: (§1) FIG. 9: Analgesic effect of Serodolin in the acetic acid-induced writhing test. In this test, nociception was induced by an intraperitoneally injection (ip) of 0.1 ml/10 g acid acetic solution (10 ml/kg) in peripheral origin. Serodolin at increasing dosage was administrated by oral (po), intravenous (iv) or subcutaneous (sc) route before acid acetic injection (upper panel). Positive control animals were pretreated morphine (3 mg/kg, sc) 10 minutes before acetic acid. Five minutes after i.p. injection of acetic acid the number of writhing was recorded for 10 minutes. Data mean±SEM of values obtained from a representative experiment (n=10 animals/group). ****p<0.0001 ***p<0.001 **p<0.01 *p<0.05 as compared with the control group (Vh).
as §1, with “16:” for “9:”, “MOA51” for “Serodolin”, “i.p.injection” for “i.p. injection”, “animals/group).” for “animals/group). ****p<0.0001 ***p<0.001”, “**p<0.01” for “**p<0.01 *p<0.05”
Writhing tests: Mice (25-35 g). Groups of mice (n=10) received by oral, subcutaneous or intravenous route Serodolin at different doses (0.1-10 mg/kg) one hour before intraperitoneally injection of 1% acetic acid in a volume of 10 ml/kg. Control group received vehicle (10 ml/kg, solution of 20% DMSO and 5% tween 80). The test was carried out 5 minutes later after acid acetic injection. The characteristic writhing responses have been observed individually and counted for 10 minutes.
Analgesic activity was first evaluated using the acetic acid abdominal constriction test (writhing test), a chemical model of visceral pain. We evaluated the dose-response effect of Serodolin following single oral, intravenous and subcutaneous administration of the compound one hour before injection of acetic acid.
Analgesic activity was evaluated using the acetic acid abdominal constriction test (writhing test), a chemical model of visceral pain. We evaluated the dose-response effect of MOA51 following single oral, intravenous and subcutaneous administration of the compound one hour before injection of acetic acid. MOA51 administered by the oral route induced statistically significant dose-dependent decreases in the number of writhings at and above the dose of 1 mg/kg. By the intravenous route, MOA51 induced dose-dependent decreases in the number of writhings at and above the dose of 0.1 mg/kg.

`O=c1[nH]c2ccccc2n1CN1CCN(c2ccc(F)cc2)CC1` [Serodolin] was tested, and the “inhibitory effect on paw licking, early phase” value (Sprague-Dawley male rats; 0 to 5 minutes, not significant) was −40%, the “inhibition of licking, late phase” value (Sprague-Dawley male rats; 17 to 27 minutes) was −80% and the “tolerance after repetitive administration (AUC)” value (C57BL/6 mice; 9 consecutive days) was “didn't present any tolerance effect after repetitive administration”. The “mechanical response threshold vs vehicle” value (C57BL/6 mice; first (D+10) and last (D+18) administration, 1 h and 2 h) was “significant increase of the mechanical threshold response”, the “ERK phosphorylation in HEK-293 mock cells” value (HEK-293 mock cells) was “neither Serodolin, nor MOA-51 were able to induce ERK phosphorylation” and the “inhibition of the writhing assay response” value (mice; at the highest dosage) was “up to 87%”. For the same compound, the “dose giving significant decrease in number of writhings, subcutaneous route” value (mice; s.c., one hour before acetic acid) was 0.1 mg/kg.
